DBAASP
≈ marks a conversion by molar mass, not a printed value. Where “and” joins values, the source holds several entries; their conditions need not be identical. Equal values may be shown once. One block for each compound: values may come before it.

Columns and labels:
Assay in all cases: ≥ marks a high value that may be exact or a test limit, other limits are often not marked, values filed in µg/mL are converted to µM
[1] = test system: Bacillus subtilis ATCC 9372
[2] = test system: Bacillus anthracis Sterne 34F2
[3] = test system: Burkholderia thailandensis
Escherichia coli MG1655 = test system: Escherichia coli MG1655
Aeromonas hydrophila = test system: Aeromonas hydrophila
Vibrio harveyi = test system: Vibrio harveyi
[4] = test system: Staphylococcus aureus Cowan 1
[5] = test system: Escherichia coli ATCC 25922
[6] = test system: Yersinia pseudotuberculosis YPIII
Staphylococcus capitis 1 = test system: Staphylococcus capitis 1
[7] = test system: Candida albicans ATCC 10231
Bacillus megaterium Bm11 = test system: Bacillus megaterium Bm11
[8] = test system: Staphylococcus aureus USA 300
Escherichia coli K-12 = test system: Escherichia coli K-12
[9] = test system: Bacillus subtilis ATCC 6633
[10] = test system: Candida albicans ATCC 90028
[11] = test system: Staphylococcus aureus ATCC 43300
[12] = test system: Staphylococcus aureus ATCC 6538
[13] = test system: Escherichia coli ATCC 8739
[14] = test system: Pseudomonas aeruginosa ATCC 27853
Pseudomonas aeruginosa = test system: Pseudomonas aeruginosa
Escherichia coli = test system: Escherichia coli
Enterobacter cloacae = test system: Enterobacter cloacae
[15] = test system: Staphylococcus aureus ATCC 25923
Bacillus subtilis = test system: Bacillus subtilis
Staphylococcus aureus = test system: Staphylococcus aureus
[16] = test system: Salmonella enterica subsp. enterica serovar Typhi
Bacillus subtilis 168 = test system: Bacillus subtilis 168
[17] = test system: Micrococcus luteus CCM 144
[18] = test system: Candida albicans F7-39/IDE99
Escherichia coli B = test system: Escherichia coli B
[19] = test system: Salmonella enterica subsp. enterica serovar Enteritidis
Micrococcus luteus A270 = test system: Micrococcus luteus A270
Listeria innocua = test system: Listeria innocua
Streptococcus mutans = test system: Streptococcus mutans

SMILES: CC(=O)N[C@@H](C)C(=O)N[C@@H](CCC(=O)O)C(=O)N[C@@H](CCCN=C(N)N)C(=O)N[C@H](C(=O)NCC(=O)N[C@@H](C)C(=O)NCC(=O)N[C@@H](C)C(=O)N1CCC[C@H]1C(=O)N[C@H](C(=O)N[C@@H](Cc1ccc(O)cc1)C(=O)N[C@@H](CC(C)C)C(N)=O)C(C)C)C(C)C [AERVGAGAPVYL]
MIC [1]: ≥ 100 µM
MIC [2]: ≥ 100 µM
MIC [3]: ≥ 50 µM

SMILES: CC[C@H](C)[C@H](NC(=O)[C@H](C)NC(=O)[C@H](CCCN=C(N)N)NC(=O)[C@@H](NC(=O)CNC(=O)[C@H](Cc1cnc[nH]1)NC(=O)[C@H](CO)NC(=O)[C@@H](NC(=O)[C@H](Cc1c[nH]c2ccccc12)NC(=O)CNC(=O)[C@@H](NC(=O)[C@@H](NC(=O)[C@H](Cc1cnc[nH]1)NC(=O)[C@H](Cc1cnc[nH]1)NC(=O)[C@@H](NC(=O)[C@@H](N)Cc1ccccc1)[C@@H](C)CC)[C@@H](C)CC)[C@@H](C)CC)[C@@H](C)CC)C(C)C)C(=O)N[C@@H](C)C(=O)N[C@@H](CCCN=C(N)N)C(=O)N[C@@H](C)C(=O)N[C@H](C(=O)N[C@@H](Cc1cnc[nH]1)C(N)=O)[C@@H](C)CC [FIHHIIGWISHGVRAIARAIH]
MIC (Escherichia coli MG1655): 8 µM and 16 µM
MIC (Aeromonas hydrophila): ≥ 128 µM
MIC (Vibrio harveyi): 16 µM (≈ 38.5 µg/mL)

SMILES: CC[C@H](C)[C@H](NC(=O)CNC(=O)[C@H](C)NC(=O)[C@H](CC(C)C)NC(=O)[C@@H](NC(=O)[C@H](CCCN=C(N)N)NC(=O)CNC(=O)[C@@H](NC(=O)[C@H](CC(C)C)NC(=O)[C@@H]1CCCN1C(=O)[C@H](CC(C)C)NC(=O)[C@@H](N)Cc1ccccc1)[C@@H](C)CC)C(C)C)C(=O)N[C@@H](CC(C)C)C(N)=O [FLPLIGRVLAGIL]
MIC [4]: 2.5 µM (≈ 3.45 µg/mL)
MIC [5]: > 40 µM
MIC [6]: 20 µM (≈ 27.6 µg/mL)
MIC (Staphylococcus capitis 1): 5 µM (≈ 6.9 µg/mL)
MIC [7]: 2.5 µM (≈ 3.45 µg/mL)
MIC (Bacillus megaterium Bm11): 2.5 µM (≈ 3.45 µg/mL)

SMILES: CC[C@H](C)[C@H](NC(=O)[C@H](CCCN=C(N)N)NC(=O)[C@H](CCC(N)=O)NC(=O)[C@@H](NC(=O)[C@@H](NC(=O)[C@H](CCCN=C(N)N)NC(=O)[C@H](CCCCN)NC(=O)[C@H](Cc1ccccc1)NC(=O)[C@H](CCC(=O)O)NC(=O)CN)[C@@H](C)CC)C(C)C)C(=O)N[C@@H](CCCCN)C(=O)N[C@@H](CC(=O)O)C(=O)N[C@@H](Cc1ccccc1)C(=O)N[C@@H](CC(C)C)C(=O)N[C@@H](CCCN=C(N)N)C(=O)N[C@@H](CC(N)=O)C(=O)N[C@@H](CC(C)C)C(=O)N[C@H](C(N)=O)C(C)C [GEFKRIVQRIKDFLRNLV]
MIC [8]: ≥ 60 µM
MIC (Escherichia coli K-12): ≥ 60 µM

SMILES: CC[C@H](C)[C@H](NC(=O)CN)C(=O)N[C@@H](Cc1ccccc1)C(=O)N[C@@H](CO)C(=O)N[C@H](C(=O)N[C@H](C(=O)N[C@@H](Cc1ccccc1)C(=O)N[C@@H](CCCCN)C(=O)N[C@@H](C)C(=O)NCC(=O)N[C@@H](CCCCN)C(=O)NCC(=O)N[C@H](C(=O)N[C@H](C(=O)N[C@H]1CSSC[C@@H](C(=O)O)NC(=O)[C@H](CC(C)C)NC(=O)CNC(=O)[C@H]([C@@H](C)O)NC(=O)[C@H](CC(C)C)NC(=O)CNC1=O)C(C)C)[C@@H](C)CC)C(C)C)[C@@H](C)O [GIFSTVFKAGKGIVCGLTGLC]
MIC [9]: 12.5 µM (≈ 25.9 µg/mL)
MIC [10]: ≥ 50 µM
MIC [11]: 12.5 µM (≈ 25.9 µg/mL)
MIC [12]: 3.1 µM (≈ 6.42 µg/mL)
MIC [13]: 25 µM (≈ 51.7 µg/mL)

SMILES: CSCC[C@H](N)C(=O)N[C@@H](CC(C)C)C(=O)N[C@H](C(=O)N[C@@H](C)C(=O)N[C@@H](CCC(=O)O)C(=O)N[C@@H](CCC(=O)O)C(=O)N[C@@H](CCCCN)C(=O)N[C@@H](C)C(=O)N[C@@H](C)C(=O)N[C@H](C(=O)N[C@H](C(=O)N[C@@H](C)C(=O)N[C@@H](Cc1ccccc1)C(=O)O)[C@@H](C)O)C(C)C)[C@@H](C)O [MLTAEEKAAVTAF]
MIC [19]: 6 µM (≈ 8.29 µg/mL)
MIC (Escherichia coli): 4 µM (≈ 5.53 µg/mL)
MIC (Micrococcus luteus A270): 4 µM (≈ 5.53 µg/mL)
MIC (Listeria innocua): 6 µM (≈ 8.29 µg/mL)

SMILES: CC[C@H](C)[C@H](NC(=O)[C@H](CCC(N)=O)NC(=O)[C@H](CCCCN)NC(=O)[C@@H](NC(=O)[C@H](CCC(=O)O)NC(=O)[C@H](CCC(N)=O)NC(=O)[C@H](CC(C)C)NC(=O)[C@@H](NC(=O)[C@@H](N)CCCN=C(N)N)C(C)C)[C@@H](C)CC)C(=O)N[C@@H](CC(C)C)C(=O)N[C@@H](CCCCN)C(=O)O [RVLQEIKQILK]
MIC (Streptococcus mutans): ≥ 183 µM

SMILES: CC(C)C[C@H](NC(=O)[C@H](CCC(=O)O)NC(=O)[C@@H](NC(=O)[C@H](CC(=O)O)NC(=O)[C@H](CCCCN)NC(=O)[C@H](CC(N)=O)NC(=O)[C@H](C)NC(=O)[C@H](CCCCN)NC(=O)[C@H](CCCCN)NC(=O)CNC(=O)[C@H](CCCCN)NC(=O)[C@@H](N)CO)C(C)C)C(=O)N[C@@H](C)C(=O)N[C@@H](CCCN=C(N)N)C(=O)NCC(=O)O [SKGKKANKDVELARG]
MIC [1]: ≥ 100 µM
MIC [2]: ≥ 100 µM
MIC [3]: ≥ 50 µM

Second part, the compound after the results:

MIC [14]: 61.5 µM (≈ 128 µg/mL)
MIC (Pseudomonas aeruginosa): 7.69 µM (≈ 16 µg/mL)
MIC (Escherichia coli): 15.4 µM (≈ 32 µg/mL)
MIC (Enterobacter cloacae): ≥ 123 µM
MIC [15]: 0.961 µM (≈ 2 µg/mL)
MIC [10]: 30.7 µM (≈ 64 µg/mL)
MIC [5]: 30.7 µM (≈ 64 µg/mL)
MIC (Bacillus subtilis): ≥ 61.5 µM
MIC (Staphylococcus aureus): 61.5 µM (≈ 128 µg/mL)
MIC [16]: 3.84 µM (≈ 8 µg/mL)
SMILES: CC(C)C[C@H](NC(=O)[C@H](CCCCN)NC(=O)[C@H](CCCN=C(N)N)NC(=O)[C@H](Cc1ccccc1)NC(=O)[C@H](Cc1ccccc1)NC(=O)[C@H](CCCCN)NC(=O)[C@H](CCCCN)NC(=O)[C@H](Cc1ccccc1)NC(=O)[C@H](CCCN=C(N)N)NC(=O)[C@H](CCCCN)NC(=O)[C@@H](NC(=O)[C@H](CC(C)C)NC(=O)[C@@H](N)CCCCN)C(C)C)C(=O)N[C@@H](CCCCN)C(=O)N[C@@H](CCCCN)C(=O)N[C@@H](CO)C(N)=O [KLVKRFKKFFRKLKKS]

MIC (Bacillus subtilis 168): ≥ 100 µM
MIC (Pseudomonas aeruginosa): > 100 µM
MIC [17]: ≥ 100 µM
MIC [18]: ≥ 100 µM
MIC (Escherichia coli B): ≥ 100 µM
MIC (Staphylococcus aureus): > 100 µM
SMILES: CC(C)C[C@H](NC(=O)CNC(=O)[C@H](C)NC(=O)CNC(=O)[C@H](Cc1c[nH]c2ccccc12)NC(=O)[C@H](CC(N)=O)NC(=O)[C@@H](N)CC(C)C)C(=O)N[C@@H](CCCCN)C(=O)N[C@@H](Cc1cnc[nH]1)C(=O)NCC(=O)NCC(=O)N[C@@H](CCCCN)C(N)=O [LNWGAGLKHGGK]

MIC (Bacillus subtilis 168): 13.3 µM (≈ 18.9 µg/mL)
MIC (Pseudomonas aeruginosa): 93.3 µM (≈ 132 µg/mL)
MIC [17]: 10.8 µM (≈ 15.3 µg/mL)
MIC [18]: 11.3 µM (≈ 16 µg/mL)
MIC (Escherichia coli B): ≥ 70 µM
MIC (Staphylococcus aureus): 100 µM (≈ 142 µg/mL)
SMILES: CC[C@H](C)[C@H](NC(=O)[C@H](C)NC(=O)CNC(=O)[C@H](Cc1c[nH]c2ccccc12)NC(=O)[C@H](CC(N)=O)NC(=O)[C@@H](N)CC(C)C)C(=O)N[C@@H](CC(C)C)C(=O)N[C@@H](CCCCN)C(=O)N[C@@H](Cc1cnc[nH]1)C(=O)N[C@H](C(=O)N[C@@H](CCCCN)C(=O)N[C@@H](CCCCN)C(N)=O)[C@@H](C)CC [LNWGAILKHIKK]

MIC (Streptococcus mutans): ≥ 53.3 µM
SMILES: NCCCC[C@H](NC(=O)[C@H](Cc1c[nH]c2ccccc12)NC(=O)[C@H](Cc1c[nH]c2ccccc12)NC(=O)[C@H](Cc1c[nH]c2ccccc12)NC(=O)[C@H](CCCN=C(N)N)NC(=O)[C@H](CCCN=C(N)N)NC(=O)[C@@H](N)CCCN=C(N)N)C(=O)O [RRRWWWK]
